We go through seven molecules from patent US6610703B1, “Method for treatment of glycolipid storage diseases” (G.D. Searle & Co., priority 1998, dated 2003).

Series [1] relates to human myeloid (HL-60) cells. The series can be described thus: Inhibition of glycolipid biosynthesis in HL-60 cells (radiolabelled palmitic acid, TLC, scanning densitometry). Format: cell-based. As to conditions: for times more sensitive HL-60 cells than CHO cells: HL-60 versus CHO cells. The procedure: Cells were cultured for four days in the presence of radiolabelled palmitic acid and the following concentrations of compound:
After extraction the radioactively labelled glycolipids were separated by TLC and visualized by radioautography.
Chinese Hamster Ovary (CHO) cells and human myeloid (HL-60) cells grown in the presence of varying concentrations of inhibitor in addition to a precursor (radiolabelled palmitic acid) of glycolipid biosynthesis were treated with solvents to extract the glycolipids by the procedure described by Platt et al., J. Biol. Chem. 269, 8362-8365 (1994).
The radiolabelled lipids were separated by TLC (FIG. 1) and bands corresponding to glucosylceramide and lactosyl-ceramide were quantitated by scanning densitometry to estimate the reduction in glycolipid biosynthesis.

Series [2] relates to glycolipid biosynthesis. As to conditions: according to U.S. Pat. No. 5,472,969, cited from earlier work; for dose required / activity against glycolipid biosynthesis: unit not given.
Series [3] is described as follows: Organ distribution of radiolabelled compound in mouse after oral gavage. As to conditions: for % recovered radioactivity, Brain / % recovered radioactivity, Liver: normal mouse, gavage; for distribution in mouse liver (deposition and clearance): oral gavage, 30, 60 and 90 minutes (FIG. 10). Format: in vivo. The procedure: Mouse body fluids and organs were collected for different times after gavage with radiolabelled compound. Radioactivity in each sample was determined and expressed as a percentage of radio-activity recovered. Solid bars, NN-DNJ, hatched bars, NB-DNJ.
The radioactivity recovered (%) is plotted against N-alkyl chain length (C4 to C18) for 30 minutes (clear bars), 60 minutes (shaded bars) and 90 minutes (filled, black bars). […] Short chain compounds (C4-C6) are rapidly cleared in a time-dependent manner. […] The C12 to C18 analogs show the reverse trend, i.e., reduced appearance in the liver but this increases with time.
The radioactivity recovered (%) is plotted against N-alkyl chain length (C4 to C18) for 30 minutes (clear bars), 60 minutes (shaded bars) and 90 minutes (filled, black bars).
FIG. 12 is a series of four bar charts, A, B, C and D, in which radioactivity (cpm) found in the liver is plotted against time post gavage in hours (h) with four different N-alkyl analogs of deoxynojirimycin (DNJ). The four analogs shown are:; FIG. 12A, N-butyl(C4); FIG. 12B, N-nonyl (C9); FIG. 12C, N-dodecyl(C12); FIG. 12D, N-cis-13-octadecenyl (C18).
FIG. 13 is a series of four bar charts, A, B, C and D, in which radioactivity (cpm) found in the brain is plotted against time post gavage in hours (h) with the same analog compounds as in FIG. 12. The four analogs shown are: FIG. 13A, N-butyl (C4); FIG. 13B, N-nonyl (C9); FIG. 13C, N-dodecyl (C12); FIG. 13D, N-cis-13-octadecenyl (C18).
Further evidence that longer alkyl chains are taken up much better has been obtained by in vivo studies with mouse.

Series [4] addresses T1, HL-60 cell ceramide glucosyltransferase (Homo sapiens, UniProt Q16739).
T1 construct: endogenous in cells; host or cells: HL-60 (human myeloid) cells
T1 sequence (Q16739 1-394): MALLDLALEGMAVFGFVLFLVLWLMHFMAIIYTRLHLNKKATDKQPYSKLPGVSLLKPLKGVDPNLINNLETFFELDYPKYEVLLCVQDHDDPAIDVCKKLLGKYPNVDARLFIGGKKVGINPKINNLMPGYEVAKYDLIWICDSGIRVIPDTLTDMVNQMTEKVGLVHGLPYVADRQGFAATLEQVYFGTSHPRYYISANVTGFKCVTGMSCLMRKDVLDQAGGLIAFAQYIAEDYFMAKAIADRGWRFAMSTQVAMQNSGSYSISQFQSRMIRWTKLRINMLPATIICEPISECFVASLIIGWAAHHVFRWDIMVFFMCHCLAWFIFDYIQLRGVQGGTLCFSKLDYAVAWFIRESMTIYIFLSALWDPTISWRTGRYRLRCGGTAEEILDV
As to the kind of experiment: In vitro inhibition of HL-60 cell ceramide glucosyltransferase activity. Format: biochemical. As to conditions: C4 to C18 series (FIG. 8).

For series [5], the system named is Serum Protein. The series can be described thus: Imino sugar (N-alkyl DNJ) binding to serum protein. As to conditions: protein bound versus non-bound radioactivity (FIG. 14). Format: in vitro ADME. An excerpt:
The percentage compound radioactivity is plotted against N-alkyl chain length (C4 to C18) with the protein bound percentage shown by open circles and the non-bound percentage shown by filled circles. […] Short chain compounds (C4-C6) bind poorly but those larger than C10 are almost completely bound to protein.

The subject of series [6] is Hepatitis B virus (HBV). As to conditions: Block et al., Nature Medicine 1998; cited from earlier work.
For series [7], the system named is CHO, MDBK and HepG2 cells. As to the kind of experiment: Cell-associated radioactivity (uptake) of radiolabelled compound in cultured cells. It counts as in vitro ADME. As to conditions: MDBK and HepG2, incubated up to 24 hours.

Take `CCCCN1C[C@H](O)[C@@H](O)[C@H](O)[C@H]1CO` [N-butyl-DNJ, N-butyldeoxynojirimycin, reference compound]: in series [1], the “times more sensitive HL-60 cells than CHO cells” value is “more than 10 times”. Also, the “dose required / activity against glycolipid biosynthesis” value in series [2] is recorded as 0.01-0.1. Also, the “time after which the majority of radioactivity is found in the liver” value in series [3] (mouse, post gavage (FIG. 12)) was determined as 1.5 h. Further, the “% recovered radioactivity, Brain” value in series [3] (30 min) came to 0.2%; in series [3] (60 min), 0.1%; in series [3] (90 min), 0.03%. Moreover, the “% recovered radioactivity, Liver” value stood at 8.5% in series [3] (30 min), 2.8% in series [3] (60 min) and 0.9% in series [3] (90 min).
For the molecule `CCCC/C=C\CCCCCCCCCCCCN1C[C@H](O)[C@@H](O)[C@H](O)[C@H]1CO` [C18], the “deposition in the liver” value in series [3] (mouse, 24 h post gavage (FIG. 12)) was “significant deposition”.
For the molecule `CN1C[C@H](O)[C@@H](O)[C@H](O)[C@H]1CO` [N-methyl analog], in series [2], the “dose required / activity against glycolipid biosynthesis” value is “inactive”.
Consider `CCCCCCCCCCN1C[C@H](O)[C@@H](O)[C@H](O)[C@H]1CO` [N-decyl-DNJ], for which the “inhibition at times lower concentrations than N-butyl-DNJ” value in series [1] (HL-60 cell-based assay) is 50 times. The “inhibition of ceramide glucosyltransferase versus N-alkyl chain length” value in series [4] is “optimal”. Also, the “distribution in mouse liver (deposition and clearance)” value in series [3] was “increased deposition and slower clearance”.
Turning to `CCCCCCCCCN1C[C@H](O)[C@@H](O)[C@H](O)[C@H]1CO` [N-nonyl-DNJ, N-nonyl-1.5-dideoxy-1,5-imino-D-glucitol], the “binding to serum protein” value in series [5] is “favor equally, protein and solution phase”. Also, in series [1], the “times more sensitive HL-60 cells than CHO cells” value was determined as 100 times. The “inhibition of Hepatitis B virus” value in series [6] is reported as “effective as an inhibitor”. In addition, in series [7], the “increase of cell-associated radioactivity versus N-butyl-DNJ” value is recorded as 3.5-5 fold. The entries for the “% recovered radioactivity, Brain” value in series [3] (30 min), in series [3] (60 min) and in series [3] (90 min) were 0.4%, 0.3% and 0.4%, respectively. For the same molecule, the “% recovered radioactivity, Liver” value amounted to 27.1% in series [3] (30 min), 12.6% in series [3] (60 min) and 13.5% in series [3] (90 min). Besides, the “distribution in mouse liver (deposition and clearance)” value in series [3] is “increased deposition and slower clearance”.
On to `CCCCCCCCN1CC(O)C(O)C(O)C1CO` (stereo not drawn) [C8], for which, in series [5], the “binding to serum protein” value was “favor equally, protein and solution phase”.
On to `CCCCCCN1C[C@H](O)[C@@H](O)[C@H](O)[C@H]1CO` [N-hexyl derivative of DNJ], for which the “dose required for activity against glycolipid biosynthesis” value in series [2] is 0.2 mg/mL.
